According to PubChem BioAssay (NCI):
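Assay format: 96-well plates, 48-hour exposure. The concentration for full growth arrest is given as TGI.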

Columns and labels:
Assay in all cases: inhibition of tumour cell growth, NCI panel, 48 h
SR leukemia = test system: SR leukemia
UACC-257 melanoma = test system: UACC-257 melanoma
MDA-MB-231 breast = test system: MDA-MB-231 breast
SF-295 CNS = test system: SF-295 CNS
DU-145 prostate = test system: DU-145 prostate
NCI/ADR-RES ovarian = test system: NCI/ADR-RES ovarian
LOX IMVI melanoma = test system: LOX IMVI melanoma
HOP-92 NSCLC = test system: HOP-92 NSCLC
NCI-H460 lung = test system: NCI-H460 lung
MOLT-4 leukemia = test system: MOLT-4 leukemia
M14 melanoma = test system: M14 melanoma
SK-MEL-28 melanoma = test system: SK-MEL-28 melanoma
PC-3 prostate = test system: PC-3 prostate
UACC-62 melanoma = test system: UACC-62 melanoma
SW-620 colon = test system: SW-620 colon
ACHN renal = test system: ACHN renal
NCI-H23 lung = test system: NCI-H23 lung
MDA-N = test system: MDA-N
HCC-2998 colon = test system: HCC-2998 colon
NCI-H226 lung = test system: NCI-H226 lung
SK-MEL-2 melanoma = test system: SK-MEL-2 melanoma
IGROV1 ovarian = test system: IGROV1 ovarian
MDA-MB-435 = test system: MDA-MB-435
MCF7 breast = test system: MCF7 breast
COLO 205 colon = test system: COLO 205 colon
SK-OV-3 ovarian = test system: SK-OV-3 ovarian
HS 578T breast = test system: HS 578T breast
SN12C renal = test system: SN12C renal
SF-539 CNS = test system: SF-539 CNS
MALME-3M melanoma = test system: MALME-3M melanoma
HCT-15 colon = test system: HCT-15 colon
OVCAR-8 ovarian = test system: OVCAR-8 ovarian
SF-268 CNS = test system: SF-268 CNS
HL-60(TB) leukemia = test system: HL-60(TB) leukemia
A549 NSCLC = test system: A549 NSCLC
TK-10 renal = test system: TK-10 renal
OVCAR-3 ovarian = test system: OVCAR-3 ovarian
CAKI-1 renal = test system: CAKI-1 renal
EKVX NSCLC = test system: EKVX NSCLC
SNB-19 CNS = test system: SNB-19 CNS
HOP-62 NSCLC = test system: HOP-62 NSCLC
RXF 393 renal = test system: RXF 393 renal
SK-MEL-5 melanoma = test system: SK-MEL-5 melanoma
NCI-H522 lung = test system: NCI-H522 lung
786-0 renal = test system: 786-0 renal
T-47D breast = test system: T-47D breast
CCRF-CEM leukemia = test system: CCRF-CEM leukemia
HCT-116 colon = test system: HCT-116 colon
OVCAR-4 ovarian = test system: OVCAR-4 ovarian
KM12 colon = test system: KM12 colon
HT29 colon = test system: HT29 colon
A498 renal = test system: A498 renal
OVCAR-5 ovarian = test system: OVCAR-5 ovarian
BT-549 breast = test system: BT-549 breast
RPMI-8226 leukemia = test system: RPMI-8226 leukemia
UO-31 renal = test system: UO-31 renal
SNB-75 CNS = test system: SNB-75 CNS
K-562 leukemia = test system: K-562 leukemia
U251 CNS = test system: U251 CNS

Measured: TGI

CC(C)[C@H](NC(=O)OCc1ccccc1)C(=O)N[C@H](/C=C/C(=O)OC(C)(C)C)CO
not listed: BT-549 breast | RPMI-8226 leukemia | UO-31 renal | SNB-75 CNS | K-562 leukemia | U251 CNS
> 100 µM: all other assays above

CC(C)=C[C@@H]1C[C@H](C)[C@H]2CC[C@H](C)[C@H]3C(=O)C(O)=C(C)C(=O)[C@]123
not listed: SR leukemia | SK-MEL-2 melanoma | RXF 393 renal | T-47D breast
> 100 µM: all other assays above
